Tests used:
[1] = tested on: TDP-43 BiFC cells; test: Cell viability (stained nuclei count) in TDP-43-BiFC cells; type: cell-based; settings: Forskolin-only group = 100%
Method in brief: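 Forskolin (30 µM) co-treated with compound (screen 3 and 10 µM; dose-response 0.003–10 µM) for 48 h. BiFC fluorescence normalised to Forskolin-only (100% aggregation) minus untreated; viability from Hoechst-stained nuclei count vs Forskolin-only. IC50 by nonlinear regression.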

[2] = Liver microsomal stability, human; type: in vitro ADME; settings: 1 µM compound; 0.5 mg/mL microsomes; NADPH; 30 minutes at 37°C
Method in brief: (§1)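 Compound (1 µM) incubated with liver microsomes (0.5 mg/mL; human, dog, rat, mouse) in 0.1 M phosphate pH 7.4, 5 min preincubation at 37°C, then 30 min with NADPH-generating system. Acetonitrile quench; remaining parent quantified by LC-MS/MS.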

[3] = Liver microsomal stability, rat; type: in vitro ADME; settings: 1 µM compound; 0.5 mg/mL microsomes; NADPH; 30 minutes at 37°C
Method in brief: as §1

[4] = Liver microsomal stability, mouse; type: in vitro ADME; settings: 1 µM compound; 0.5 mg/mL microsomes; NADPH; 30 minutes at 37°C
Method in brief: as §1

[5] = molecular target: T1, CYP2C9 (Homo sapiens, UniProt P11712); test: CYP isoenzyme activity inhibition in human liver microsomes, CYP2C9; type: in vitro ADME; settings: 10 µM compound; human liver microsomes 0.25 mg/mL; relative to control without compound
T1 construct: human liver microsomes (0.25 mg/mL); from tissue; host or cells: human liver microsomes
T1 sequence (P11712 whole entry): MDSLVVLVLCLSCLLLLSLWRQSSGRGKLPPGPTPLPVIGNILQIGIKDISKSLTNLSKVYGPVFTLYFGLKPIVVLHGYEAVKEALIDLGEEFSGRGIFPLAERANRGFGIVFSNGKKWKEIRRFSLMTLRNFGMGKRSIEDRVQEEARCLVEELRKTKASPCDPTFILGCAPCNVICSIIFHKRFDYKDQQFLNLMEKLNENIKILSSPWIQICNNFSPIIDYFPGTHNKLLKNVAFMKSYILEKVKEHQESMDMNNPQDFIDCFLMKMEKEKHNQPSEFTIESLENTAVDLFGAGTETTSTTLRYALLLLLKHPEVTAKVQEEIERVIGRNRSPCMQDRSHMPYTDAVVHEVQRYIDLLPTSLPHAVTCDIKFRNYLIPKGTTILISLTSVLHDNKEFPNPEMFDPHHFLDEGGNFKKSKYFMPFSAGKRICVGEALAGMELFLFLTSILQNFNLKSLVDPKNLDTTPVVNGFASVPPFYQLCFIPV
Method in brief: (§2)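 Human liver microsomes 0.25 mg/mL, pH 7.4 phosphate, with cocktail substrates phenacetin 50 µM (1A2), diclofenac 10 µM (2C9), S-mephenytoin 100 µM (2C19), midazolam 2.5 µM (3A4); compound at 10 µM. 5 min pre-incubation, then NADPH for 15 min at 37 °C; metabolites by LC-MS/MS MRM, reported as % activity of no-compound control.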

[6] = molecular target: T2, CYP2C19 (Homo sapiens, UniProt P33261); test: CYP isoenzyme activity inhibition in human liver microsomes, CYP2C19; type: in vitro ADME; settings: 10 µM compound; human liver microsomes 0.25 mg/mL; relative to control without compound
T2 construct: human liver microsomes (0.25 mg/mL); from tissue; host or cells: human liver microsomes
T2 sequence (P33261 whole entry): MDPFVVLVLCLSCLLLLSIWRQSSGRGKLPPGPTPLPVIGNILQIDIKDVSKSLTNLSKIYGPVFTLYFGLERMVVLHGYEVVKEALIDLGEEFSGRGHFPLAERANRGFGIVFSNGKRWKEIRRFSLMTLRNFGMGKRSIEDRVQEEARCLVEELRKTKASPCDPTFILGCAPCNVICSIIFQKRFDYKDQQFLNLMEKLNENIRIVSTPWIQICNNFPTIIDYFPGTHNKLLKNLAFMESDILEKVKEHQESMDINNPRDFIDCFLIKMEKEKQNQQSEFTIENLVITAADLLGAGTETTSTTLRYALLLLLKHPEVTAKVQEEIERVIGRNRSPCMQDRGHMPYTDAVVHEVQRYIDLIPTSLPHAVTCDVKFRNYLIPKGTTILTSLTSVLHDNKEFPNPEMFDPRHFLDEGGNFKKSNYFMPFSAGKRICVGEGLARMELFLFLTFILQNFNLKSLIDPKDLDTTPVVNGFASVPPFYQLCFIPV
Method in brief: as §2

For CC1CN(C(=O)Nc2nc3ccc(NN=C(C#N)C#N)cc3s2)CC(C)O1 (stereo not drawn) [Compound 39, (2-(2,6-dimethylmorpholine-4-carboxamido)benzo[d]thiazol-6-yl)carbonohydrazonoyl dicyanide], which “Cell viability (%) (@ 3 uM)” value [1] is on record?
Its value is 117.7%.

What about the “Human microsomes (% remaining)” value [2] of the same molecule?
The value was 83.8 % remaining.

And the “Rat microsomes (% remaining)” value [3]?
The value was 82.3 % remaining.

What about the “Mouse microsomes (% remaining)” value [4] of the same molecule?
Its value is 88.4 % remaining.

And the “CYP2C9 (% activity)” value [5]?
The value was 42.9 % activity.

What about the “CYP2C19 (% activity)” value [6] of the same molecule?
Its value is 78.6 % activity.

For COC1CCN(c2nc3ccc(NN=C(C#N)C#N)cc3o2)CC1 [Compound 17, (2-(4-methoxypiperidin-1-yl)benzo[d]oxazol-6-yl)carbonohydrazonoyl dicyanide], which “Cell viability (%) (@ 3 uM)” value [1] is on record?
The value was 96.9%.

What about the “Human microsomes (% remaining)” value [2] of the same molecule?
The value was 16.7 % remaining.

And the “Rat microsomes (% remaining)” value [3]?
Its value is 59.3 % remaining.

What about the “Mouse microsomes (% remaining)” value [4] of the same molecule?
The value was greater than 100 % remaining.

And the “CYP2C9 (% activity)” value [5]?
Its value is 73.8 % activity.

What about the “CYP2C19 (% activity)” value [6] of the same molecule?
Its value is 90 % activity.

With CC(=O)N1CCN(c2nc3ccc(NN=C(C#N)C#N)cc3s2)CC1 [Compound 30, (2-(4-acetylpiperazin-1-yl)benzo[d]thiazol-6-yl)carbonohydrazonoyl dicyanide] as the molecule, how does the “Cell viability (%) (@ 3 uM)” value [1] read?
The value was 83.1%.

And the “Human microsomes (% remaining)” value [2]?
Its value is greater than 100 % remaining.

And the “Rat microsomes (% remaining)” value [3]?
The value was 91.9 % remaining.

What about the “Mouse microsomes (% remaining)” value [4] of the same molecule?
The value was 83.8 % remaining.

What about the “CYP2C9 (% activity)” value [5] of the same molecule?
Its value is 86.2 % activity.

What about the “CYP2C19 (% activity)” value [6] of the same molecule?
Its value is 86.2 % activity.

Which “Cell viability (%) (@ 3 uM)” value [1] does the source give for CC1CN(c2nc3ccc(NN=C(C#N)C#N)cc3s2)CC(C)O1 (stereo not drawn) [Compound 10, (2-(2,6-dimethylmorpholino)benzo[d]thiazol-6-yl)carbonohydrazonoyl dicyanide] here?
Its value is 83.8%.

What about the “Human microsomes (% remaining)” value [2] of the same molecule?
Its value is 69.4 % remaining.

What about the “Rat microsomes (% remaining)” value [3] of the same molecule?
The value was 84.8 % remaining.

And the “Mouse microsomes (% remaining)” value [4]?
The value was 87.3 % remaining.

What about the “CYP2C9 (% activity)” value [5] of the same molecule?
The value was 76.8 % activity.

What about the “CYP2C19 (% activity)” value [6] of the same molecule?
The value was 83.6 % activity.

With CC1COCCN1c1nc2ccc(NN=C(C#N)C#N)cc2s1 (stereo not drawn) [Compound 13, (2-(3-methylmorpholino)benzo[d]thiazol-6-yl)carbonohydrazonoyl dicyanide] as the molecule, how does the “Cell viability (%) (@ 3 uM)” value [1] read?
The value was 63.6%.

And the “Human microsomes (% remaining)” value [2]?
The value was 79.9 % remaining.

What about the “Rat microsomes (% remaining)” value [3] of the same molecule?
The value was 47.7 % remaining.

And the “Mouse microsomes (% remaining)” value [4]?
Its value is 84.8 % remaining.

And the “CYP2C9 (% activity)” value [5]?
The value was 75 % activity.

What about the “CYP2C19 (% activity)” value [6] of the same molecule?
The value was 83.3 % activity.
